This note sets out measurements from the supplement of paper PMC11208160.
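Note: IS621 recombinase and bridge RNA in Escherichia coli cells.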

A short description of the data set: recombinant barcode read abundance after kanamycin selection (control-corrected) (log10(CPM+1)); higher = more efficient recombination; sequences stand for … in AGTGCAGAGAAAATCGGCCAGTTTTCTCTGCCTGCAGTCCGCATGCCGT…AGATTTATGCAGCGGACTGCCTTTCTCCCAAAGTGATAAACCGGACAGTATCATGGACCGGTTTTCCCGGTAATCCGTATTTGCAAGGTTGGTTTCACT; site = the 11-nt target. In a few lines: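 This pooled E. coli screen matched targets with IS621 bridge RNA target-binding loops. Plating was done in duplicate on chloramphenicol/ampicillin LB agar as a control and on chloramphenicol/ampicillin/kanamycin plus 0.1 mM IPTG. Recombination efficiency reflects barcode counts at recombinant junctions as counts per million, averaged and control-corrected. The figures are log10(CPM+1).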
With “TACGAGGCTTGGGTTCTAACCTGTTGCCT (site TACGCGGCTAG)”, the “recombinant barcode read abundance (log10)” value was 0.0314.

“TACGAGGCTTGGGTTCTAACCTGTTGCCT (site TACGGGGCTAG)”: the “recombinant barcode read abundance (log10)” value was 0.0616.

For the sequence “TACGAGGCTTGGGTTCTAACCTGTTGCCT (site TACGTGGCTAG)”, the “recombinant barcode read abundance (log10)” value was 0.0666.

Take “TACGCTCCTTGGGTTCTAACCTGTTGCAT (site TACGCTCCTAA)”: the “recombinant barcode read abundance (log10)” value was 0.053.

As for “TACGCTCCTTGGGTTCTAACCTGTTGCAT (site TACGCTCCTAC)”, the “recombinant barcode read abundance (log10)” value was 0.0178.

As to “TACGCTCCTTGGGTTCTAACCTGTTGCAT (site TACGCTCCTAG)”, the “recombinant barcode read abundance (log10)” value stood at 0.284.

For “TACGCTCCTTGGGTTCTAACCTGTTGCAT (site TACGCTCCTAT)”, the “recombinant barcode read abundance (log10)” value is 0.785.

Take “TACGCTCCTTGGGTTCTAACCTGTTGCTT (site TACGCTCCTAA)”: the “recombinant barcode read abundance (log10)” value came to 0.243.

For the sequence “TACGCTCCTTGGGTTCTAACCTGTTGCTT (site TACGCTCCTAC)”, the “recombinant barcode read abundance (log10)” value amounted to 0.176.

Turning to “TACGCTCCTTGGGTTCTAACCTGTTGCTT (site TACGCTCCTAG)”, the “recombinant barcode read abundance (log10)” value stood at 0.0812.

Turning to “TACGCTCCTTGGGTTCTAACCTGTTGCTT (site TACGCTCCTAT)”, the “recombinant barcode read abundance (log10)” value amounted to 0.017.

On to “TACTATACTTGGGTTCTAACCTGTTGCCT (site TACTATACTAG)”, for which the “recombinant barcode read abundance (log10)” value was found to be 0.181.

On to “TACTATACTTGGGTTCTAACCTGTTGCCT (site TACTATCCTAG)”, for which the “recombinant barcode read abundance (log10)” value was determined as 0.131.

As for “TACTATACTTGGGTTCTAACCTGTTGCCT (site TACTATGCTAG)”, the “recombinant barcode read abundance (log10)” value was 0.0468.

Consider “TACTATACTTGGGTTCTAACCTGTTGCCT (site TACTATTCTAG)”, for which the “recombinant barcode read abundance (log10)” value amounted to 0.149.

Turning to “TACTATCCTTGGGTTCTAACCTGTTGCCT (site TACTATACTAG)”, the “recombinant barcode read abundance (log10)” value was 0.0496.

Turning to “TACTATCCTTGGGTTCTAACCTGTTGCCT (site TACTATCCTAG)”, the “recombinant barcode read abundance (log10)” value stood at 0.441.

Regarding “TACTATCCTTGGGTTCTAACCTGTTGCCT (site TACTATGCTAG)”, the “recombinant barcode read abundance (log10)” value worked out at 0.

Regarding “TACTATCCTTGGGTTCTAACCTGTTGCCT (site TACTATTCTAG)”, the “recombinant barcode read abundance (log10)” value was found to be 0.162.

For “TACTATGCTTGGGTTCTAACCTGTTGCCT (site TACTATACTAG)”, the “recombinant barcode read abundance (log10)” value is 0.211.

In the case of “TACTATGCTTGGGTTCTAACCTGTTGCCT (site TACTATCCTAG)”, the “recombinant barcode read abundance (log10)” value is 0.163.

As to “TACTATGCTTGGGTTCTAACCTGTTGCCT (site TACTATGCTAG)”, the “recombinant barcode read abundance (log10)” value was 1.19.

Take “TACTATGCTTGGGTTCTAACCTGTTGCCT (site TACTATTCTAG)”: the “recombinant barcode read abundance (log10)” value worked out at 0.187.

“TACTCCGCTTGGGTTCTAACCTGTTGCCT (site GACTCCGCTAG)”: the “recombinant barcode read abundance (log10)” value was 0.031.

As for “TACTCCGCTTGGGTTCTAACCTGTTGCCT (site TACTCCGCTAG)”, the “recombinant barcode read abundance (log10)” value amounted to 1.02.

In the case of “TACTGAGCTTGGGTTCTAACCTGTTGCCT (site CACTGAGCTAG)”, the “recombinant barcode read abundance (log10)” value worked out at 0.0308.

Regarding “TACTGAGCTTGGGTTCTAACCTGTTGCCT (site TACTGAGCTAG)”, the “recombinant barcode read abundance (log10)” value amounted to 0.52.

With “TAGAACTCTTGGGTTCTAACCTGTTGCCT (site TAGAACTCTAG)”, the “recombinant barcode read abundance (log10)” value came to 0.914.

“TAGAACTCTTGGGTTCTAACCTGTTGCCT (site TAGAACTCTCG)”: the “recombinant barcode read abundance (log10)” value is 0.0641.

Consider “TAGAACTCTTGGGTTCTAACCTGTTGCCT (site TAGAACTCTGG)”, for which the “recombinant barcode read abundance (log10)” value was determined as 0.156.

As for “TAGAACTCTTGGGTTCTAACCTGTTGCCT (site TAGAACTCTTG)”, the “recombinant barcode read abundance (log10)” value amounted to 0.119.

For “TAGAACTCTTGGGTTCTAACCTGTTGCGT (site TAGAACTCTAC)”, the “recombinant barcode read abundance (log10)” value is 1.07.
